Assay [1] has as its target T1, Aspergillus oryzae CEL3A beta-glucosidase (Aspergillus oryzae, UniProt Q2UUD6).
T1 construct: made in house
The experiment in a line: Variable pH PASC conversion assay (Examples 29, 30) without GH61 polypeptide. Type of assay: biochemical. As to conditions: gallic acid 0.2% w/w + Aspergillus oryzae CEL3A beta-glucosidase (10 mg/g), no GH61, 72 hours, 50° C.

Assay [2] deals with T. terrestris GH61E polypeptide. The experiment in a line: Microcrystalline cellulose conversion assay I (Examples 8, 9) with T. terrestris GH61E polypeptide. It is filed as biochemical, Thielavia terrestris. As to conditions: dioxy compound 0.3% w/w + T. terrestris GH61E polypeptide (10 mg/g) + endoglucanase II + beta-glucosidase (5 mg/g each), 96 hours. Here is the method:
A 5% microcrystalline cellulose slurry was prepared by addition of 2.5 g of AVICEL®PH101 (Sigma-Aldrich, St. Louis, Mo., USA) to a graduated 50 ml screw-cap conical tube followed by 15 ml of 1 M sodium acetate pH 5 and 1 ml of 100 mM MnSO4 and approximately 20 ml of deionizer water. Each conical tube was then mixed thoroughly by shaking/vortexing, and adjusted to 50 ml total with deionized water and mixed again. Contents of the tube were then quickly transferred to a 100 ml beaker and stirred rapidly with a magnetic stirrer. Five hundred μl aliquots of the 5% AVICEL® slurry were pipetted into wells of a 2.0 ml 96-deepwell plate (Axygen, Union City, Calif., USA) using a 1000 μl micropipette with a wide aperture tip (end of tip cut off about 2 mm from the base). Three hundred μl of either deionized water or a 1% dioxy compound solution (dissolved in deionized water) was added to each well.
The dioxy compounds assayed include caffeic acid (Sigma-Aldrich, St. Louis, Mo., USA), dichlorophenolindophenol (DCPIP; Sigma-Aldrich, St. Louis, Mo., USA), ethyl gallate (Sigma-Aldrich, St. Louis, Mo., USA), gallic acid (Sigma-Aldrich, St. Louis, Mo., USA), 3,4-dihydroxybenzoic acid (Sigma-Aldrich, St. Louis, Mo., USA), pyrocatechol (Sigma-Aldrich, St. Louis, Mo., USA), pyrogallol (Sigma-Aldrich, St. Louis, Mo., USA), sinapinic acid (3,5 dimethoxy-4-hydroxy cinnamic acid; Apin Chemicals LTD, Abingdon, UK), and tannic acid (Sigma-Aldrich, St. Louis, Mo., USA).
Enzyme mixtures were prepared and then added simultaneously to all wells in a volume of 200 μl, for a total of 1 ml in each reaction. […] All experiments reported were performed in triplicate.
After approximately 4 days, the deep-well plate was removed from the incubator and chilled overnight to 4° C. The plate was then mixed well by inversion and briefly centrifuged at 52×g in a SORVALL® RT7 centrifuge (Thermo Fisher Scientific, Waltham, Mass., USA) for 10 seconds. Samples were then mixed by pipetting, and 200 μl from each well were transferred to a MULTISCREEN® HV centrifuge filter plate assembly (Millipore, Bedford, Mass., USA). The centrifuge filter plate assembly was centrifuged at 2000 rpm in a SORVALL® RT7 centrifuge for 20 minutes. […] Sugars were detected using a refractive index detector (Agilent Technologies, Inc., Santa Clara, Calif., USA) with quantification by integration compared to purified sugar standards.
(§1) In this assay only glucose was measured since beta-glucosidase was at high levels in all samples but the controls.
(§2) A limit digest was performed to determine the total concentration accessible glucose equivalents using 100 mg of T. reesei cellulase (CELLIC™ CTec, Novozymes A/S, Bagsvaerd, Denmark) per gram cellulose, Triplicate data points were averaged and standard deviation was calculated.

The target in assay [3] is Aspergillus fumigatus GH61B polypeptide (Aspergillus fumigatus, UniProt Q4WP32). The experiment in a line: Variable pH PASC conversion assay (Examples 29, 30) with Aspergillus fumigatus GH61B polypeptide. Type of assay: biochemical. As to conditions: gallic acid 0.2% w/w + Aspergillus fumigatus GH61B polypeptide (10 mg/g) + beta-glucosidase (10 mg/g), 72 hours, 50° C.
Assay [4] has as its target T. aurantiacus GH61A polypeptide (Thermoascus aurantiacus, UniProt G3XAP7, N13Y). The experiment in a line: Microcrystalline cellulose conversion assay I (Examples 8, 9) with T. aurantiacus GH61A polypeptide. It is filed as biochemical. The following applies: T. aurantiacus GH61A polypeptide (10 mg per g cellulose) + endoglucanase II + beta-glucosidase (5 mg/g each), no dioxy compound, 96 hours. Here is the method: A 5% microcrystalline cellulose slurry was prepared by addition of 2.5 g of AVICEL®PH101 (Sigma-Aldrich, St. Louis, Mo., USA) to a graduated 50 ml screw-cap conical tube followed by 15 ml of 1 M sodium acetate pH 5 and 1 ml of 100 mM MnSO4 and approximately 20 ml of deionizer water. Each conical tube was then mixed thoroughly by shaking/vortexing, and adjusted to 50 ml total with deionized water and mixed again. Contents of the tube were then quickly transferred to a 100 ml beaker and stirred rapidly with a magnetic stirrer. […]
After approximately 4 days, the deep-well plate was removed from the incubator and chilled overnight to 4° C. […] Sugars were detected using a refractive index detector (Agilent Technologies, Inc., Santa Clara, Calif., USA) with quantification by integration compared to purified sugar standards.
as §1, §2

Here are results for two molecules from patent US9394555B2, “Compositions comprising a polypeptide having cellulolytic enhancing activity and a dioxy compound and uses thereof” (priority 2010, dated 2016).

T1 sequence (Q2UUD6 20-861): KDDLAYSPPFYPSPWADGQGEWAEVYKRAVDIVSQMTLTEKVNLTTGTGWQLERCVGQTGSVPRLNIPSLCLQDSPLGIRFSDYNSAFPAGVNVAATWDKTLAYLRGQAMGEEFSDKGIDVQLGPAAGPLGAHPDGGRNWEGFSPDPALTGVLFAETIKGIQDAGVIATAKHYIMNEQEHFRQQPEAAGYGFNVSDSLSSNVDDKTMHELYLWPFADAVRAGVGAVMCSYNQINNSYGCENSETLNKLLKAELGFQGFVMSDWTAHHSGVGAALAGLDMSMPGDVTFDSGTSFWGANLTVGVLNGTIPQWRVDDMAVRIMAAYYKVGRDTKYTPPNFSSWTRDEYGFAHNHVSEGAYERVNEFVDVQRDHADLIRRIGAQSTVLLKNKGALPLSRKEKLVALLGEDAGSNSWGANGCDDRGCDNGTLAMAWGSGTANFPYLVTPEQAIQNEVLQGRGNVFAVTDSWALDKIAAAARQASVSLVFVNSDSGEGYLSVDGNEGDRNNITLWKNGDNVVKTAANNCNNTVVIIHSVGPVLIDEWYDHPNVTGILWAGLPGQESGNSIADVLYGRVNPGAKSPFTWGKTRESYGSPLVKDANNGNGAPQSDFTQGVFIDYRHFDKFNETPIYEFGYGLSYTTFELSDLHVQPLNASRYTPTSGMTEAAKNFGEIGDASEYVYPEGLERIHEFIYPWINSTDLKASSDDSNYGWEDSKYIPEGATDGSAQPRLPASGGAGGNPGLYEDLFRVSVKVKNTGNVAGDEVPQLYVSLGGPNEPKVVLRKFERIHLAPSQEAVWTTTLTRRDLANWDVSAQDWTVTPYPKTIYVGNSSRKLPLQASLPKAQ
Sequence of Aspergillus fumigatus GH61B polypeptide (Q4WP32 22-250): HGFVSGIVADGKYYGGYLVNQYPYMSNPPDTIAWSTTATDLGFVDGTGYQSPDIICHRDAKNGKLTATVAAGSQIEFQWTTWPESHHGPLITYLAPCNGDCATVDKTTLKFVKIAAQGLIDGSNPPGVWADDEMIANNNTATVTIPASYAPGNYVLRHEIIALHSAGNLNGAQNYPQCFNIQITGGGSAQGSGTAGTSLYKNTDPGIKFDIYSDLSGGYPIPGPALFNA

For the molecule `O=C(O)c1cc(O)c(O)c(O)c1` [gallic acid], the “conversion of phosphoric acid swollen cellulose” value in assay [1] (pH 4) came out at 1.6±0.2%; in assay [1] (pH 5) it was 2.0±0.7%; in assay [1] (pH 6) it was 1.2±0.5%; in assay [1] (pH 7.5), 1.9±1.2%; in assay [3] (pH 4), 21.7±3.0%; in assay [3] (pH 5) it was 23.8±1.4%. Besides, the “conversion of phosphoric acid swollen cellulose” value came to 17.3±0.3% in assay [3] (pH 6) and 5.6±0.7% in assay [3] (pH 7.5). For the same molecule, the “conversion of microcrystalline cellulose” value worked out at 9.3±0.1% in assay [2] (50° C.) and 7.9±0.1% in assay [2] (60° C.).

B1: T. aurantiacus GH61A polypeptide: GH61A polypeptide having cellulolytic enhancing activity (SEQ ID NO: 14), recombinantly produced in Aspergillus oryzae JaL250 (protein, listed as Thermoascus aurantiacus)
chain: MSFSKIIATAGVLASASLVAGHGFVQNIVIDGKYYGGYLVNQYPYMSNPPEVIAWSTTATDLGFVDGTGYQTPDIICHRGAKPGALTAPVSPGGTVELQWTPWPDSHHGPVINYLAPCNGDCSTVDKTQLEFFKIAESGLINDDNPPGIWASDNLIAANNSWTVTIPTTIAPGNYVLRHEIIALHSAQNQDGAQNYPQCINLQVTGGGSDNPAGTLGTALYHDTDPGILINIYQKLSSYIIPGPPLYTG
As for B1, the “conversion of microcrystalline cellulose” value in assay [4] (50° C.) was determined as 2.2±0.1%; in assay [4] (60° C.), 2.6±0.1%.
